Molecular target: Beta-1 adrenergic receptor (Homo sapiens, UniProt P08588)
Assay: DRUGMATRIX: Adrenergic beta1 radioligand binding (ligand: [125I] Cyanopindolol)
Format: cell membranes, CHO-K1, Membrane
Details: cho-k1; Not Active = under 50% inhibition at 10 µM

Chain of Beta-1 adrenergic receptor (P08588 whole entry): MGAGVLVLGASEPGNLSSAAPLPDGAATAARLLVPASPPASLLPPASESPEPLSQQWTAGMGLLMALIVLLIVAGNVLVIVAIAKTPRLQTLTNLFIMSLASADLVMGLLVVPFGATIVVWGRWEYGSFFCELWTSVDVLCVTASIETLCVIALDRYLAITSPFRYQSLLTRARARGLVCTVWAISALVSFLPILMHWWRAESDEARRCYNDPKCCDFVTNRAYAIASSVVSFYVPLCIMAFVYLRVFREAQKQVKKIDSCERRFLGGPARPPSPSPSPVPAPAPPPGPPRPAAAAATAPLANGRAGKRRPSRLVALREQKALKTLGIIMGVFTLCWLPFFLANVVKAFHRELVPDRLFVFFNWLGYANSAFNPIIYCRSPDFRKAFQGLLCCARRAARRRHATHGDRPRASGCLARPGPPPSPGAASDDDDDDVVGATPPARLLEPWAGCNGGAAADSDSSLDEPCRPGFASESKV

| Structure (SMILES) | IC50 |
| --- | --- |
| CC(C)Oc1ccc2c(=O)c(-c3ccccc3)coc2c1 [IPRIFLAVONE] | Not Active |
| CNC1(c2ccccc2Cl)CCCCC1=O (stereo not drawn) [KETAMINE] | Not Active |
| CCN(CC)CC(=O)Nc1c(C)cccc1C [LIDOCAINE] | Not Active |
| CN[C@H]1CC[C@@H](c2ccc(Cl)c(Cl)c2)c2ccccc21 [SERTRALINE] | Not Active |
| COc1cc2nc(N3CCN(C(=O)C4CCCO4)CC3)nc(N)c2cc1OC (stereo not drawn) [TERAZOSIN] | Not Active |

Molecular target: Beta-2 adrenergic receptor (Homo sapiens, UniProt P07550)
Sequence (P07550 whole entry): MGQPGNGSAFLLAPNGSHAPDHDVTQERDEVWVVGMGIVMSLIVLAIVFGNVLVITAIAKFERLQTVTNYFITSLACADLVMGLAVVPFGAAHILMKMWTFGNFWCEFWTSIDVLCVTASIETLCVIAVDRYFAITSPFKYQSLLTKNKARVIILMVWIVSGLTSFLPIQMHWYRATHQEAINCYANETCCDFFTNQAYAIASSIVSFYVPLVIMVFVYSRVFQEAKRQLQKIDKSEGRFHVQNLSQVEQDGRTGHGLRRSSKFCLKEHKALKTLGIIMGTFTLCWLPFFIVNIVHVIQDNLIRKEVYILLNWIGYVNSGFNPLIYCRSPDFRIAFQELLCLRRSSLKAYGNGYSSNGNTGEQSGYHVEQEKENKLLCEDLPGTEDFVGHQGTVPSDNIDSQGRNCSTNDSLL
Assay: DRUGMATRIX: Adrenergic beta2 radioligand binding (ligand: [3H] CGP-12177)
Format: cell membranes, CHO, Membrane
Details: cho; Not Active = under 50% inhibition at 10 µM

| Structure (SMILES) | IC50 | Ki |
| --- | --- | --- |
| Clc1ccc(COC(Cn2ccnc2)c2ccc(Cl)cc2Cl)cc1 (stereo not drawn) [ECONAZOLE] | Not Active | – |
| CC(C)Oc1ccc2c(=O)c(-c3ccccc3)coc2c1 [IPRIFLAVONE] | – | Not Active |
| CNC1(c2ccccc2Cl)CCCCC1=O (stereo not drawn) [KETAMINE] | Not Active | – |
| CCN(CC)CC(=O)Nc1c(C)cccc1C [LIDOCAINE] | Not Active | – |
| CN[C@H]1CC[C@@H](c2ccc(Cl)c(Cl)c2)c2ccccc21 [SERTRALINE] | Not Active | – |
| COc1cc2nc(N3CCN(C(=O)C4CCCO4)CC3)nc(N)c2cc1OC (stereo not drawn) [TERAZOSIN] | Not Active | – |

Tested on: not listed separately
Assay: DRUGMATRIX: Tumor Necrosis Factor (TNF), Non-Selective radioligand binding (ligand: [125I] TNF-alpha)
Format: cell membranes, Membrane
Details: u-937; Not Active = under 50% inhibition at 10 µM

| Structure (SMILES) | IC50 | Ki |
| --- | --- | --- |
| CC(C)Oc1ccc2c(=O)c(-c3ccccc3)coc2c1 [IPRIFLAVONE] | Not Active | Not Active |
| CC(C)NCC(O)c1ccc(O)c(O)c1 (stereo not drawn) [ISOPROTERENOL] | Not Active | Not Active |
| CNC1(c2ccccc2Cl)CCCCC1=O (stereo not drawn) [KETAMINE] | Not Active | Not Active |
| CCN(CC)CC(=O)Nc1c(C)cccc1C [LIDOCAINE] | Not Active | Not Active |
| CC(C)NCC(O)c1ccc(NS(C)(=O)=O)cc1 (stereo not drawn) [SOTALOL] | Not Active | Not Active |
| COc1cc2nc(N3CCN(C(=O)C4CCCO4)CC3)nc(N)c2cc1OC (stereo not drawn) [TERAZOSIN] | Not Active | Not Active |

Molecular target: T1, Nitric oxide synthase, inducible (Mus musculus, UniProt P29477);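 further: inhibition of iNOS enzyme activity measured with L-arginine as substrate; in other assays of this panel Not Active means under 50% inhibition at 10 µM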
T1 sequence (P29477 whole entry): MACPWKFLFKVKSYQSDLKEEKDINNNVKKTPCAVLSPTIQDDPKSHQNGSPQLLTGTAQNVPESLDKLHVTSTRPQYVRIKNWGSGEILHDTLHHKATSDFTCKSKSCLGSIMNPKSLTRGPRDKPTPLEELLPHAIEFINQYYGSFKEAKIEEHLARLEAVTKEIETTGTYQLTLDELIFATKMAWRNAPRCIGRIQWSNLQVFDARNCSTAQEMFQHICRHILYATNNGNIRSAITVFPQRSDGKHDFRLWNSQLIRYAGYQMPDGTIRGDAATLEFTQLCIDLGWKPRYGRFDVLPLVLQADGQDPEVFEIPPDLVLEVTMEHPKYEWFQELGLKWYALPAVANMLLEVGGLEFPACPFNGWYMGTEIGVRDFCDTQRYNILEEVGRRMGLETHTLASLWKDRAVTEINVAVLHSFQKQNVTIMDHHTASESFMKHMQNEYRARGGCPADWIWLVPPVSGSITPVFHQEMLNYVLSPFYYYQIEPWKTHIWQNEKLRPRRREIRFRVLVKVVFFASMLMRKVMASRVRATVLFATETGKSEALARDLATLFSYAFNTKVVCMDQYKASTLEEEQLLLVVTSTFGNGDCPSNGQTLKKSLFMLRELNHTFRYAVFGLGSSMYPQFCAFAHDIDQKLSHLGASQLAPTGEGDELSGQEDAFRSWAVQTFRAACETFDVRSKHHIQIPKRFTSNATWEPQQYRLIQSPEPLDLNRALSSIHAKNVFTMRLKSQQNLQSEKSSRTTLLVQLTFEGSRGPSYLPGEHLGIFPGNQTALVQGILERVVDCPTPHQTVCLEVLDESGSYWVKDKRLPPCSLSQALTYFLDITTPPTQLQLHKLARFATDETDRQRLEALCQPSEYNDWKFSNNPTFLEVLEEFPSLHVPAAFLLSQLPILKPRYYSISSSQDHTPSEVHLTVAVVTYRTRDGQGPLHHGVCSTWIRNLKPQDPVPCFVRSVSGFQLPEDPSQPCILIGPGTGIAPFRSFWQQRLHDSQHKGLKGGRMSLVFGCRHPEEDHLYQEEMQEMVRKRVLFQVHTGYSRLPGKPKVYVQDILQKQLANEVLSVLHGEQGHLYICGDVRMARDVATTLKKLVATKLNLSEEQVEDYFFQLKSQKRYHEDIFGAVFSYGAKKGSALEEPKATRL
Assay: not given
Set-up: species or system Escherichia coli
Details: not given

| Structure (SMILES) | IC50 |
| --- | --- |
| Clc1ccc(COC(Cn2ccnc2)c2ccc(Cl)cc2Cl)cc1 (stereo not drawn) [ECONAZOLE] | Not Active |
| CC(C)Oc1ccc2c(=O)c(-c3ccccc3)coc2c1 [IPRIFLAVONE] | Not Active |
| CC(C)NCC(O)c1ccc(O)c(O)c1 (stereo not drawn) [ISOPROTERENOL] | Not Active |
| CNC1(c2ccccc2Cl)CCCCC1=O (stereo not drawn) [KETAMINE] | Not Active |
| CCN(CC)CC(=O)Nc1c(C)cccc1C [LIDOCAINE] | Not Active |
| CN[C@H]1CC[C@@H](c2ccc(Cl)c(Cl)c2)c2ccccc21 [SERTRALINE] | Not Active |
| CC(C)NCC(O)c1ccc(NS(C)(=O)=O)cc1 (stereo not drawn) [SOTALOL] | Not Active |
| COc1cc2nc(N3CCN(C(=O)C4CCCO4)CC3)nc(N)c2cc1OC (stereo not drawn) [TERAZOSIN] | Not Active |

Tested on: not listed separately
Assay: DRUGMATRIX: Phorbol Ester radioligand binding (ligand: [3H] PDBu)
Format: cell membranes, Mus musculus, ICR, Brain, Membrane
Details: Not Active = under 50% inhibition at 10 µM

| Structure (SMILES) | IC50 | Ki |
| --- | --- | --- |
| CC(C)Oc1ccc2c(=O)c(-c3ccccc3)coc2c1 [IPRIFLAVONE] | Not Active | Not Active |
| CC(C)NCC(O)c1ccc(O)c(O)c1 (stereo not drawn) [ISOPROTERENOL] | Not Active | Not Active |
| CNC1(c2ccccc2Cl)CCCCC1=O (stereo not drawn) [KETAMINE] | Not Active | Not Active |
| CCN(CC)CC(=O)Nc1c(C)cccc1C [LIDOCAINE] | Not Active | Not Active |
| CC(C)NCC(O)c1ccc(NS(C)(=O)=O)cc1 (stereo not drawn) [SOTALOL] | Not Active | Not Active |
| COc1cc2nc(N3CCN(C(=O)C4CCCO4)CC3)nc(N)c2cc1OC (stereo not drawn) [TERAZOSIN] | Not Active | Not Active |

Molecular target: T2, Interstitial collagenase (Homo sapiens, UniProt P03956);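 further: MMP-1 enzyme inhibition assay using a peptide substrate; in other assays of this panel Not Active means under 50% inhibition at 10 µM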
T2 sequence (P03956 whole entry): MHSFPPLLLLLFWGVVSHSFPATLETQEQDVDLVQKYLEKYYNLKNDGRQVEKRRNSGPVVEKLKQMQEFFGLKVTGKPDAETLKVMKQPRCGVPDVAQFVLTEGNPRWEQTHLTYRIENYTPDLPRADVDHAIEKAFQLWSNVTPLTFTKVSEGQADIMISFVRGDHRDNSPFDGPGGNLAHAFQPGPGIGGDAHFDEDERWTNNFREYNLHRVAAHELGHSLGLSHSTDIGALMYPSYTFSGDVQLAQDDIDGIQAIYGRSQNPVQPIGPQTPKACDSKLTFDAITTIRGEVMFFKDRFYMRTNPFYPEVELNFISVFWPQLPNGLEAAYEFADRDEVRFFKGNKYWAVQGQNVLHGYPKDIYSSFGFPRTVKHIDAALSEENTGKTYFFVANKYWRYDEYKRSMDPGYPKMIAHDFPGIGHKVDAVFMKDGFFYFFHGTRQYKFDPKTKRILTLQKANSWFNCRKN
Assay: biochemical
Format: tissue-based, Rheumatoid synovial fibroblasts
Details: not given

| Structure (SMILES) | IC50 |
| --- | --- |
| Clc1ccc(COC(Cn2ccnc2)c2ccc(Cl)cc2Cl)cc1 (stereo not drawn) [ECONAZOLE] | Not Active |
| CC(C)Oc1ccc2c(=O)c(-c3ccccc3)coc2c1 [IPRIFLAVONE] | Not Active |
| CC(C)NCC(O)c1ccc(O)c(O)c1 (stereo not drawn) [ISOPROTERENOL] | Not Active |
| CNC1(c2ccccc2Cl)CCCCC1=O (stereo not drawn) [KETAMINE] | Not Active |
| CCN(CC)CC(=O)Nc1c(C)cccc1C [LIDOCAINE] | Not Active |
| CN[C@H]1CC[C@@H](c2ccc(Cl)c(Cl)c2)c2ccccc21 [SERTRALINE] | Not Active |
| CC(C)NCC(O)c1ccc(NS(C)(=O)=O)cc1 (stereo not drawn) [SOTALOL] | Not Active |
| COc1cc2nc(N3CCN(C(=O)C4CCCO4)CC3)nc(N)c2cc1OC (stereo not drawn) [TERAZOSIN] | Not Active |

Molecular target: T3, 5-hydroxytryptamine receptor 1A (Rattus norvegicus, UniProt P19327); further: in other assays of this panel Not Active means under 50% inhibition at 10 µM
T3 sequence (P19327 whole entry): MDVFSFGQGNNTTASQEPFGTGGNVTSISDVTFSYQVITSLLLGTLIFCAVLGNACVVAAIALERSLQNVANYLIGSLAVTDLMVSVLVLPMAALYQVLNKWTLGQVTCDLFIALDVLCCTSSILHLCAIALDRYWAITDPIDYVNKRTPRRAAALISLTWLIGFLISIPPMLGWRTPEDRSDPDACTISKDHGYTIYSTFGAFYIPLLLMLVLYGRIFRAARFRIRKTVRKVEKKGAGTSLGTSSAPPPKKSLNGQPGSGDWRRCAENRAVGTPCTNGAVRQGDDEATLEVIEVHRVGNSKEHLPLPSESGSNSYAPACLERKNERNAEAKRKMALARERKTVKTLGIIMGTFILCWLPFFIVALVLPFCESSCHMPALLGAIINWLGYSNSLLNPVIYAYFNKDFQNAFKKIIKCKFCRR
Assay: not given
Format: cell membranes, CHO-K1, Membrane
Details: cho-k1

| Structure (SMILES) | IC50 |
| --- | --- |
| CC(C)Oc1ccc2c(=O)c(-c3ccccc3)coc2c1 [IPRIFLAVONE] | Not Active |
| CC(C)NCC(O)c1ccc(O)c(O)c1 (stereo not drawn) [ISOPROTERENOL] | Not Active |
| CNC1(c2ccccc2Cl)CCCCC1=O (stereo not drawn) [KETAMINE] | Not Active |
| CCN(CC)CC(=O)Nc1c(C)cccc1C [LIDOCAINE] | Not Active |
| CN[C@H]1CC[C@@H](c2ccc(Cl)c(Cl)c2)c2ccccc21 [SERTRALINE] | Not Active |
| CC(C)NCC(O)c1ccc(NS(C)(=O)=O)cc1 (stereo not drawn) [SOTALOL] | Not Active |
| COc1cc2nc(N3CCN(C(=O)C4CCCO4)CC3)nc(N)c2cc1OC (stereo not drawn) [TERAZOSIN] | Not Active |

Same assay, conditions: read-out: IC50

| Structure (SMILES) | IC50 [µM] |
| --- | --- |
| Clc1ccc(COC(Cn2ccnc2)c2ccc(Cl)cc2Cl)cc1 (stereo not drawn) [ECONAZOLE] | 16.2 |

Same assay, conditions: read-out: Ki

| Structure (SMILES) | Ki [µM] |
| --- | --- |
| Clc1ccc(COC(Cn2ccnc2)c2ccc(Cl)cc2Cl)cc1 (stereo not drawn) [ECONAZOLE] | 9.24 |

Molecular target: Voltage-gated inwardly rectifying potassium channel KCNH2 (Homo sapiens, UniProt Q12809); further: in other assays of this panel Not Active means under 50% inhibition at 10 µM
Sequence (Q12809 whole entry): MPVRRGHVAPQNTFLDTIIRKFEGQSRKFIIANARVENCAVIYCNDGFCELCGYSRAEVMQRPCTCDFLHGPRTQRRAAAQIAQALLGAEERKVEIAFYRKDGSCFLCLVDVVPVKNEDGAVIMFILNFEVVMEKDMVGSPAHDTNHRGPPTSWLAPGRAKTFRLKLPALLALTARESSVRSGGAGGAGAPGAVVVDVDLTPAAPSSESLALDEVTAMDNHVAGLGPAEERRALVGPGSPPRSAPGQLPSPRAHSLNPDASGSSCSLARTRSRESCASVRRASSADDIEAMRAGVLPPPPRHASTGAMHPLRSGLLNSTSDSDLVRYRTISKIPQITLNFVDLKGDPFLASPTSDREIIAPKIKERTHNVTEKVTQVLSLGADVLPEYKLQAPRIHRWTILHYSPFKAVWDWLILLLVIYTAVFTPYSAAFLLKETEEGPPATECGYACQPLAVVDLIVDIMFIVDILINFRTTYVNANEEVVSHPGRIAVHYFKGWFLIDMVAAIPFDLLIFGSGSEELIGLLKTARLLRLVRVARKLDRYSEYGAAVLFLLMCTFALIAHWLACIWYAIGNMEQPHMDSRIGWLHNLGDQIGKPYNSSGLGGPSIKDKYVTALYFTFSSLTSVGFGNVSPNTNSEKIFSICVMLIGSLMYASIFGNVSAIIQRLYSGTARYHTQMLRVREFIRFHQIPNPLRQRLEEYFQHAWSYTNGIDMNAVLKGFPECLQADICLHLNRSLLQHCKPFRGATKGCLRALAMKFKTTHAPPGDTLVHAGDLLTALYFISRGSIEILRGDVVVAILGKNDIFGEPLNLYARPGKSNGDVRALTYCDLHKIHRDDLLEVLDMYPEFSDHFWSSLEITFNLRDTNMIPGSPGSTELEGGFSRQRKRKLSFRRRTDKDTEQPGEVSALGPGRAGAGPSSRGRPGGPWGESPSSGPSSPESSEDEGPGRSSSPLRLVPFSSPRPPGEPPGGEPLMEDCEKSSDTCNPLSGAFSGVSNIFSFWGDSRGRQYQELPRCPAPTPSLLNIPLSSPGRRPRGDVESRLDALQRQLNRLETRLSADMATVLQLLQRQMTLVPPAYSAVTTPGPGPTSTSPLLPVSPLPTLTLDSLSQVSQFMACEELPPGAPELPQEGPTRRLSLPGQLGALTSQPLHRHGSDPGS
Assay: not given
Details: hek293

| Structure (SMILES) | IC50 | Ki |
| --- | --- | --- |
| CC(C)Oc1ccc2c(=O)c(-c3ccccc3)coc2c1 [IPRIFLAVONE] | Not Active | Not Active |
| CC(C)NCC(O)c1ccc(O)c(O)c1 (stereo not drawn) [ISOPROTERENOL] | Not Active | Not Active |
| CNC1(c2ccccc2Cl)CCCCC1=O (stereo not drawn) [KETAMINE] | Not Active | Not Active |
| CC(C)NCC(O)c1ccc(NS(C)(=O)=O)cc1 (stereo not drawn) [SOTALOL] | Not Active | Not Active |

Source: ChEMBL document CHEMBL1909046, “DrugMatrix in vitro pharmacology data”
